US10640534B2 (Agios Pharmaceuticals, Inc., priority 2012, dated 2020)

System: U87MG cells
Experiment: Cellular assay, inhibition of 2-HG production in U87MG cells
Format: cell-based
Settings: Homo sapiens, U-87 MG, 48 h
Description: Cells (HT1080 or U87MG) are grown in T125 flasks in DMEM containing 10% FBS, 1× penicillin/streptomycin and 500 ug/mL G418 (present in U87MG cells only). They are harvested by trypsin and seeded into 96 well white bottom plates at a density of 5000 cell/well in 100 ul/well in DMEM with 10% FBS. […] Cells are incubated overnight at 37° C. in 5% CO2. The next day test compounds are made up at 2× the final concentration and 100 ul are added to each cell well. The final concentration of DMSO is 0.2% and the DMSO control wells are plated in row G. The plates are then placed in the incubator for 48 hours. […] The cell plate is placed back in the incubator for another 24 hours. At 72 hours post compound addition, 10 mL/plate of Promega Cell Titer Glo reagent is thawed and mixed. The cell plate is removed from the incubator and allowed to equilibrate to room temperature. Then 100 ul of Promega Cell Titer Glo reagent is added to each well of media. The cell plate is then placed on an orbital shaker for 10 minutes and then allowed to sit at room temperature for 20 minutes. The plate is then read for luminescence with an integration time of 500 ms.

SMILES | IC50 [nM]
Cc1ccc(N2C(=O)CC[C@H]2C(=O)N(c2cccc(F)c2)[C@H](C(=O)NC2CC(F)(F)C2)c2ccccc2Cl)nc1 [Compound 21] | 100 to 500
CS(=O)(=O)c1cccc(N(C(=O)[C@@H]2CCC(=O)N2c2cc(C#N)ccn2)C(C(=O)NC2CCC(F)(F)CC2)c2ccccc2Cl)c1 (stereo partly drawn) [Compound 95, (2S)—N-(1-(2-Chlorophenyl)-2-((4,4-difluorocyclohexyl)amino)-2-oxoethyl)-1-(4-cyanopyridin-2-yl)-N-(3-(methylsulfonyl)phenyl)-5-oxopyrrolidine-2-carboxamide] | < 100
COc1cccc(N(C(=O)[C@@H]2CCC(=O)N2c2nccc(C#N)n2)[C@H](C(=O)NC2CC(F)(F)C2)c2ccccc2Cl)c1 [Compound 164, (S)—N—((S)-1-(2-Chlorophenyl)-2-(3,3-difluorocyclobutyl-amino)-2-oxoethyl)-1-(4-cyanopyrimidin-2-yl)-N-(3-methoxyphenyl)-5-oxopyrrolidine-2-carboxamide] | < 100
N#Cc1ccnc(N2C(=O)CC[C@H]2C(=O)N(c2cc(F)cc(F)c2)[C@H](C(=O)NC2CC(F)(F)C2)c2ccccc2Cl)n1 [Compound 86, (S)—N—((S)-1-(2-Chlorophenyl)-2-((3,3-difluorocyclobutyl)amino)-2-oxoethyl)-1-(4-cyanopyrimidin-2-yl)-N-(3,5-difluorophenyl)-5-oxopyrrolidine-2-carboxamide] | < 100
CS(=O)(=O)c1cc(F)cc(N(C(=O)[C@@H]2CCC(=O)N2c2cc(C#N)ccn2)C(C(=O)NC2CCC(F)(F)CC2)c2ccccc2Cl)c1 (stereo partly drawn) [Compound 105, (2S)—N-(1-(2-Chlorophenyl)-2-((4,4-difluorocyclohexyl)amino)-2-oxoethyl)-1-(4-cyanopyridin-2-yl)-N-(3-fluoro-5-(methylsulfonyl)phenyl)-5-oxopyrrolidine-2-carboxamide] | < 100
O=C(NC1CCCCC1)[C@H](c1ccccc1Cl)N(C(=O)[C@@H]1CCC(=O)N1c1ncccn1)c1cccc(F)c1 [Compound 7] | < 100
CC(C)(C)OC(=O)N1CC(=O)N(c2nccc(C#N)n2)[C@H](C(=O)N(c2cc(F)cc(F)c2)[C@H](C(=O)NC2CCC(F)(F)CC2)c2ccccc2Cl)C1 [Compound 93, (S)-tert-Butyl 3-(((S)-1-(2-chlorophenyl)-2-((4,4-difluorocyclohexyl)amino)-2-oxoethyl)(3,5-difluorophenyl)carbamoyl)-4-(4-cyanopyrimidin-2-yl)-5-oxopiperazine-1-carboxylate] | < 100
N#Cc1ccnc(N2C(=O)CC[C@H]2C(=O)N(c2cc(F)cc(F)c2)[C@H](C(=O)NC2CCC(F)(F)CC2)c2ccccc2Cl)n1 [Compound 87, (S)—N—((S)-1-(2-Chlorophenyl)-2-((4,4-difluorocyclohexyl)amino)-2-oxoethyl)-1-(4-cyanopyrimidin-2-yl)-N-(3,5-difluorophenyl)-5-oxopyrrolidine-2-carboxamide] | < 100
N#Cc1ccnc(N2C(=O)OCC[C@H]2C(=O)N(c2cc(F)cc(F)c2)[C@H](C(=O)NC2CCC(F)(F)CC2)c2ccccc2Cl)c1 [Compound 139, (S)—N—((S)-1-(2-Chlorophenyl)-2-((4,4-difluorocyclohexyl)amino)-2-oxoethyl)-3-(4-cyanopyridin-2-yl)-N-(3,5-difluorophenyl)-2-oxo-1,3-oxazinane-4-carboxamide] | < 100
O=C(NC1CC(F)(F)C1)[C@H](c1ccccc1Cl)N(C(=O)[C@@H]1COC(=O)N1c1ncccn1)c1cccc(F)c1 [Compound 9, (S)—N—((S)-1-(2-chloro-phenyl)-2-(3,3-difluorocyclo-butylamino)-2-oxoethyl)-N-(3-fluorophenyl)-2-oxo-3-(pyrimidin-2-yl)oxazolidine-4-carboxamide] | < 100
N#Cc1ccnc(N2C(=O)CNC[C@H]2C(=O)N(c2cc(F)cc(F)c2)[C@H](C(=O)NC2CC(F)(F)C2)c2ccccc2Cl)n1 [Compound 99, (S)—N—((S)-1-(2-chlorophenyl)-2-((3,3-difluorocyclobutyl)amino)-2-oxoethyl)-1-(4-cyanopyrimidin-2-yl)-N-(3,5-difluorophenyl)-6-oxopiperazine-2-carboxamide] | < 100
O=C(NC1CCC(F)(F)CC1)[C@H](c1ccccc1Cl)N(C(=O)[C@@H]1CCC(=O)N1c1ncccn1)c1cccc(F)c1 [Compound 4, (S)—N—((S)-1-(2-chlorophenyl)-2-((4,4-difluorocyclohexyl)amino)-2-oxoethyl)-N-(3-fluorophenyl)-5-oxo-1-(pyrimidin-2-yl)pyrrolidine-2-carboxamide] | < 100
N#Cc1ccnc(N2C(=O)CC[C@H]2C(=O)N(c2cccc(F)c2)[C@H](C(=O)NC2CC(F)(F)C2)c2ccccc2Cl)c1F [Compound 82, (S)—N—((S)-1-(2-Chlorophenyl)-2-((3,3-difluorocyclobutyl)amino)-2-oxoethyl)-1-(4-cyano-3-fluoropyridin-2-yl)-N-(3-fluorophenyl)-5-oxopyrrolidine-2-carboxamide] | < 100
N#Cc1ccnc(N2C(=O)CC[C@H]2C(=O)N(c2cccc(F)c2)[C@H](C(=O)NC2CCC(F)(F)CC2)c2ccccc2Cl)c1F [Compound 83, (S)—N—((S)-1-(2-Chlorophenyl)-2-((4,4-difluorocyclohexyl)amino)-2-oxoethyl)-1-(4-cyano-3-fluoropyridin-2-yl)-N-(3-fluorophenyl)-5-oxopyrrolidine-2-carboxamide] | < 100
CCOC(=O)CN1CC(=O)N(c2cc(C#N)ccn2)[C@H](C(=O)N(c2cc(F)cc(F)c2)[C@H](C(=O)NC2CC(F)(F)C2)c2ccccc2Cl)C1 [Compound 104] | < 100
N#Cc1ccnc(N2C(=O)CC[C@H]2C(=O)N(c2cncc(F)c2)[C@H](C(=O)NC2CCC(F)(F)CC2)c2ccccc2Cl)c1 [Compound 193, (S)—N—((S)-1-(2-Chlorophenyl)-2-(4,4-difluorocyclohexylamino)-2-oxoethyl)-1-(4-cyanopyridin-2-yl)-N-(5-fluoropyridin-3-yl)-5-oxopyrrolidine-2-carboxamide] | < 100
N#Cc1ccnc(N2C(=O)[C@@H](O)C[C@H]2C(=O)N(c2cccc(F)c2)[C@H](C(=O)NC2CCC(F)(F)CC2)c2ccccc2Cl)n1 [Compound 189, (2S,4S)—N—((S)-1-(2-Chlorophenyl)-2-((4,4-difluorocyclohexyl)amino)-2-oxoethyl)-1-(4-cyanopyrimidin-2-yl)-N-(3-fluorophenyl)-4-hydroxy-5-oxopyrrolidine-2-carboxamide] | < 100

Now from value to compound:

IC50 [nM] | SMILES
< 100 | N#Cc1ccnc(N2C(=O)CC[C@H]2C(=O)N(c2cccc(OC(F)F)c2)[C@H](C(=O)NC2CC(F)(F)C2)c2ccccc2Cl)c1 (single isomer, unassigned) [Compound 181]
< 100 | N#Cc1ccnc(N2C(=O)NC[C@H]2C(=O)N(c2cccc(F)c2)[C@H](C(=O)NC2CC(F)(F)C2)c2ccccc2Cl)c1 [Compound 80, (S)—N—((S)-1-(2-chlorophenyl)-2-(3,3-difluorocyclobutylamino)-2-oxoethyl)-3-(4-cyanopyridin-2-yl)-N-(3-fluorophenyl)-2-oxoimidazolidine-4-carboxamide]
< 100 | N#Cc1cc(F)cc(N(C(=O)[C@@H]2C[C@@H](O)C(=O)N2c2cc(C#N)ccn2)C(C(=O)NC2CC(F)(F)C2)c2ccccc2Cl)c1 (stereo partly drawn) [Compound 169, (2S,4R)—N-(1-(2-Chlorophenyl)-2-(3,3-difluorocyclobutylamino)-2-oxoethyl)-N-(3-cyano-5-fluorophenyl)-1-(4-cyanopyridin-2-yl)-4-hydroxy-5-oxopyrrolidine-2-carboxamide]
< 100 | C[C@]1(O)C[C@@H](C(=O)N(c2cccc(F)c2)C(C(=O)NC2CC(F)(F)C2)c2ccccc2Cl)N(c2cc(C#N)ccn2)C1=O (single isomer, unassigned) [Compound 183]
< 100 | N#Cc1cccc(N(C(=O)[C@@H]2C[C@@H](O)C(=O)N2c2cc(C#N)ccn2)C(C(=O)NC2CC(F)(F)C2)c2ccccc2Cl)c1 (stereo partly drawn) [Compound 170, (2S,4R)—N-(1-(2-chlorophenyl)-2-((3,3-difluorocyclobutyl)amino)-2-oxoethyl)-N-(3-cyano-phenyl)-1-(4-cyanopyridin-2-yl)-4-hydroxy-5-oxopyrrolidine-2-carboxamide]
< 100 | N#Cc1ccnc(N2C(=O)CC[C@H]2C(=O)N(c2cccc(C3(O)CC3)c2)[C@H](C(=O)NC2CC(F)(F)C2)c2ccccc2Cl)c1 [Compound 140, (S)—N—((S)-1-(2-Chlorophenyl)-2-(3,3-difluorocyclobutylamino)-2-oxoethyl)-1-(4-cyanopyridin-2-yl)-N-(3-(1-hydroxycyclopropyl)phenyl)-5-oxopyrrolidine-2-carboxamide]
100 to 500 | N#Cc1ccnc(N2C(=O)CC[C@H]2C(=O)N(c2cccc(S(N)(=O)=O)c2)[C@H](C(=O)NC2CC(F)(F)C2)c2ccccc2Cl)c1 [Compound 84, (S)—N—((S)-1-(2-Chlorophenyl)-2-(3,3-difluorocyclobutylamino)-2-oxoethyl)-1-(4-cyanopyridin-2-yl)-5-oxo-N-(3-sulfamoylphenyl)pyrrolidine-2-carboxamide]
< 100 | N#Cc1ccnc(N2C(=O)CC[C@H]2C(=O)N(c2cncc(F)c2)[C@H](C(=O)NC2CC(F)(F)C2)c2ccccc2Cl)c1 [Compound 176, (S)—N—((S)-1-(2-Chlorophenyl)-2-(3,3-difluorocyclobutylamino)-2-oxoethyl)-1-(4-cyanopyridin-2-yl)-N-(5-fluoropyridin-3-yl)-5-oxopyrrolidine-2-carboxamide]
